Measured values from patent US11299510B2, “Substituted pyridopyrrolopyrimidine ribonucleosides for therapeutic uses” (USTAV ORGANICKE CHEMIE A BIOCHEMIE AV CR, V.V.I., priority 2018, dated 2022).

Tests used:
Type in all cases: cell-based
HL 60 = assay: cytotoxic MTS test, HL 60; conditions: Homo sapiens; HL 60 cells
[1] = test system: HCT116p53−/− (human colorectal cancer, mutant p53); assay: cytotoxic MTS test, HCT116p53; conditions: HCT116p53 cells
Text: (§1) To evaluate the antitumor activity of newly prepared compounds for in vitro conditions, we used cytotoxic MTS test (Nosková V. et al., Neoplasma 2002, 49, 418-425) on cell lines derived from normal tissues or tumors. Specifically, cell lines K562 (human acute myeloid leukemia); K562-Tax (human acute myeloid leukemia, paclitaxel resistant subline, overexpress multiple drug resistant protein PgP); CEM (T-lymfoblastic leukemia); CEM-DNR-bulk (T-lymfoblastic leukemia, doxorubicin resistant); A549 (human lung adenocarcinoma); HCT116p53 wt (human colorectal cancer, wild-type); HCT116p53−/−(human colorectal cancer, mutant p53) a U2OS (human bone osteosarcoma) were used. Express characteristics, susceptibility profiles of classic antitumor drugs as well as methodology of cytotoxic MTS test have been repeatedly published (Denizot, F.; Lang, R., J. Immunol. Meth. 1986, 89, 271-277; Noskova, V., see above; Šarek J. et al., J, Med. Chem., 2003, 46, 5402-5415).

[2] = test system: CEM (T-lymfoblastic leukemia); assay: cytotoxic MTS test, CEM; conditions: Homo sapiens, CCRF-CEM; CEM cells
Text: as §1

[3] = test system: HCT116p53 wt (human colorectal cancer, wild-type); assay: cytotoxic MTS test, HCT116; conditions: HCT-116, HCT116 cells
Text: as §1

[4] = test system: BJ (normal human fibroblasts); assay: cytotoxic MTS test, BJ; conditions: BJ cells
Hep G2 = assay: cytotoxic MTS test, Hep G2; conditions: Homo sapiens, HepG2; Hep G2 cells
[5] = test system: U2OS (human bone osteosarcoma); assay: cytotoxic MTS test, U2OS; conditions: U2OS cells
Text: as §1

HeLa = assay: cytotoxic MTS test, HeLa; conditions: Homo sapiens; HeLa cells
[6] = test system: A549 (human lung adenocarcinoma); assay: cytotoxic MTS test, A549; conditions: A549 cells
Text: as §1

[7] = test system: MRC-5 (normal human fibroblasts); assay: cytotoxic MTS test, MRC-5; conditions: MRC5, MRC-5 cells
[8] = test system: CEM-DNR-bulk (T-lymfoblastic leukemia, doxorubicin resistant); assay: cytotoxic MTS test, CEM-DNR; conditions: Homo sapiens; CEM-DNR cells
Text: as §1

CCRF-CEM = assay: cytotoxic MTS test, CCRF-CEM; conditions: Homo sapiens; CCRF-CEM cells
Text: as §1

[9] = test system: K562-Tax (human acute myeloid leukemia, paclitaxel resistant subline); assay: cytotoxic MTS test, K562-TAX; conditions: K562-TAX cells
Text: as §1

[10] = test system: K562 (human acute myeloid leukemia); assay: cytotoxic MTS test, K562; conditions: K562 cells
Text: as §1

Work on OC[C@H]1O[C@@H](n2c3cccnc3c3c(-c4cc5ccccc5o4)ncnc32)[C@H](O)[C@@H]1O [Compound 1i, 4-(benzofuran-2-yl)-9-(β-D-ribofuranosyl)-9H-pyrido[2′,3′:4,5]pyrrolo[2,3-d]pyrimidine] yielded an IC50 (HL 60) of over 50 µM, an IC50 [1] of over 50 µM and an IC50 [2] of over 50 µM. For the same molecule, the IC50 [3] was over 50 µM, the IC50 [4] was over 50 µM and the IC50 (Hep G2) was over 50 µM. For the same molecule, the IC50 [5] was over 50 µM, the IC50 (HeLa) was over 50 µM and the IC50 [6] was over 50 µM. It also gave an IC50 [7] of over 50 µM, an IC50 [8] of over 50 µM and an IC50 (CCRF-CEM) of 10 to 25 µM. The IC50 [9] was over 50 µM and the IC50 [10] was over 50 µM.
Molecule OC[C@H]1O[C@@H](n2c3cnccc3c3c(-c4cc5ccccc5o4)ncnc32)[C@H](O)[C@@H]1O [Compound 2i, 4-(benzofuran-2-yl)-9-(β-D-ribofuranosyl)-9H-pyrido[4′,3′:4,5]pyrrolo[2,3-d]pyrimidine] has an IC50 (HL 60) of over 50 µM, an IC50 [1] of 10 to 25 µM and an IC50 [2] of over 50 µM. For the same molecule, the IC50 [3] was 0.9 to 10 µM, the IC50 [4] was 25 to 50 µM and the IC50 (Hep G2) was over 50 µM. For the same molecule, the IC50 [5] was 10 to 25 µM, the IC50 (HeLa) was over 50 µM and the IC50 [6] was 10 to 25 µM. The IC50 [7] was 10 to 25 µM, the IC50 [8] was 10 to 25 µM and the IC50 (CCRF-CEM) was 0.9 to 10 µM. It also gave an IC50 [9] of 10 to 25 µM and an IC50 [10] of 10 to 25 µM.
CN(C)c1ncnc2c1c1ncccc1n2[C@@H]1O[C@H](CO)[C@@H](O)[C@H]1O [Compound 1e, 4-(dimethylamino)-9-(β-D-ribofuranosyl)-9H-pyrido[2′,3′:4,5]pyrrolo[2,3-d]pyrimidine] gave an IC50 (HL 60) of over 50 µM, an IC50 [1] of over 50 µM and an IC50 [2] of over 50 µM. It also gave an IC50 [3] of over 50 µM, an IC50 [4] of over 50 µM and an IC50 (Hep G2) of over 50 µM. The IC50 [5] was over 50 µM, the IC50 (HeLa) was over 50 µM and the IC50 [6] was over 50 µM. It also gave an IC50 [7] of over 50 µM, an IC50 [8] of over 50 µM and an IC50 (CCRF-CEM) of over 50 µM. It also gave an IC50 [9] of over 50 µM and an IC50 [10] of over 50 µM.
With OC[C@H]1O[C@@H](n2c3cccnc3c3c(-c4ccsc4)ncnc32)[C@H](O)[C@@H]1O [Compound 1h, 4-(thiophen-3-yl)-9-(β-D-ribofuranosyl)-9H-pyrido[2′,3′:4,5]pyrrolo[2,3-d]pyrimidine] the IC50 (HL 60) was over 50 µM, the IC50 [1] was over 50 µM and the IC50 [2] was over 50 µM. The IC50 [3] was over 50 µM, the IC50 [4] was over 50 µM and the IC50 (Hep G2) was over 50 µM. For the same molecule, the IC50 [5] was over 50 µM, the IC50 (HeLa) was over 50 µM and the IC50 [6] was over 50 µM. The IC50 [7] was over 50 µM, the IC50 [8] was over 50 µM and the IC50 (CCRF-CEM) was over 50 µM. The IC50 [9] was over 50 µM and the IC50 [10] was over 50 µM.
Work on COc1ncnc2c1c1ccncc1n2[C@@H]1O[C@H](CO)[C@@H](O)[C@H]1O [Compound 2a, 4-methoxy-9-(β-D-ribofuranosyl)-9H-pyrido[4′,3′:4,5]pyrrolo[2,3-d]pyrimidine] yielded an IC50 (HL 60) of 0.2 to 0.9 µM, an IC50 [1] of 0.9 to 10 µM and an IC50 [2] of 0.9 to 10 µM. It also gave an IC50 [3] of 0.9 to 10 µM, an IC50 [4] of over 50 µM and an IC50 (Hep G2) of 0.9 to 10 µM. It also gave an IC50 [5] of 0.9 to 10 µM, an IC50 (HeLa) of 0.9 to 10 µM and an IC50 [6] of over 50 µM. For the same molecule, the IC50 [7] was over 50 µM, the IC50 [8] was 0.9 to 10 µM and the IC50 (CCRF-CEM) was 0.2 to 0.9 µM. The IC50 [9] was 0.9 to 10 µM and the IC50 [10] was 0.9 to 10 µM.
OC[C@H]1O[C@@H](n2c3cccnc3c3c(-c4ccco4)ncnc32)[C@H](O)[C@@H]1O [Compound 1f, 4-(furan-2-yl)-9-(β-D-ribofuranosyl)-9H-pyrido[2′,3′:4,5]pyrrolo[2,3-d]pyrimidine] showed an IC50 (HL 60) of over 50 µM, an IC50 [1] of over 50 µM and an IC50 [2] of over 50 µM. For the same molecule, the IC50 [3] was over 50 µM, the IC50 [4] was over 50 µM and the IC50 (Hep G2) was over 50 µM. It also gave an IC50 [5] of over 50 µM, an IC50 (HeLa) of over 50 µM and an IC50 [6] of over 50 µM. For the same molecule, the IC50 [7] was over 50 µM, the IC50 [8] was over 50 µM and the IC50 (CCRF-CEM) was over 50 µM. The IC50 [9] was over 50 µM and the IC50 [10] was over 50 µM.
CN(C)c1ncnc2c1c1ccncc1n2[C@@H]1O[C@H](CO)[C@@H](O)[C@H]1O [Compound 2e, 4-(dimethylamino)-9-(β-D-ribofuranosyl)-9H-pyrido[4′,3′:4,5]pyrrolo[2,3-d]pyrimidine] showed an IC50 (HL 60) of over 50 µM, an IC50 [1] of over 50 µM and an IC50 [2] of over 50 µM. The IC50 [3] was over 50 µM, the IC50 [4] was over 50 µM and the IC50 (Hep G2) was over 50 µM. For the same molecule, the IC50 [5] was over 50 µM, the IC50 (HeLa) was over 50 µM and the IC50 [6] was over 50 µM. The IC50 [7] was over 50 µM, the IC50 [8] was over 50 µM and the IC50 (CCRF-CEM) was over 50 µM. For the same molecule, the IC50 [9] was over 50 µM and the IC50 [10] was over 50 µM.
